We go through 19 compounds from patent publication US20240293392A1, “INHIBITOR COMPOUNDS” (NeoPhore Limited, priority 2021, published 2024).

Where two headings read alike, the source gives them in different places.

Assay [1] addresses T1, recombinant N-terminal MLH1 (residues 15-340) (Homo sapiens, UniProt P40692).
T1 construct: recombinant N-terminal MLH1 (residues 15-340)
T1 sequence (P40692 15-340): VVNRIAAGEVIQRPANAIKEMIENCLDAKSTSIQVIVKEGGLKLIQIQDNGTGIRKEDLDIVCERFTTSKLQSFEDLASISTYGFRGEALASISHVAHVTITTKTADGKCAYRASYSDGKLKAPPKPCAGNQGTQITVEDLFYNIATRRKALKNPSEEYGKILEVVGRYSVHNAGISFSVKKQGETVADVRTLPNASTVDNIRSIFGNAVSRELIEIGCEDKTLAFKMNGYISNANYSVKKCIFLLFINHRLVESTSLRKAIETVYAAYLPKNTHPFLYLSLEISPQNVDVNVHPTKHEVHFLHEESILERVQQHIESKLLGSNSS
In words: Fluorescence Polarisation Assay for MLH1. Conditions: fluorescence polarisation probe displacement; 100 nM N-terminal MLH1, 5 nM probe compound. Type of assay: binding. As for the experimental part:
Fluorescence Polarisation Assay for MLH1
Test compounds, as 10 mM DMSO stocks, were dispensed into a 384-well Low Flange Black Flat Bottom Polystyrene Non-binding Surface plate (Corning®, item number 3575) using a Labcyte Echo acoustic liquid handler. Test compounds were added to wells in columns 1-22 whilst DMSO was added to wells in columns 23 and 24 in order to normalise the plate. 20 μL of a 2× solution (200 nM) of recombinant N-terminal MLH1 (residues 15-340) in assay buffer (25 mM HEPES, pH 7.5, 250 mM NaCl, 10 mM MgCl2, 0.01% Triton X-100, 5 mM dithiothreitol) was added to all wells in columns 1-23 and 20 μL assay buffer was added to all wells in column 24 using an E1-ClipTip pipette (ThermoFisher). Plates were centrifuged for 1 minute at 250×g and were incubated at room temperature for 30 minutes prior to the addition of 20 μL of 2× (10 nM) 5-((5-(4-((2-(2,4-dihydroxy-5-isopropylbenzoyl)isoindolin-5-yl)methyl)piperazin-1-yl)pentyl)carbamoyl)-2-(6-(dimethylamino)-3-(dimethyliminio)-3H-xanthen-9-yl)benzoate in assay buffer (prepared from a 1 mM DMSO stock) with an E1-ClipTip pipette (ThermoFisher). The final concentration of N-terminal MLH1 was 100 nM and the final concentration of the probe compound was 5 nM. Compound plates were centrifuged for 1 minute at 250×g for 1 minute and immediately read on a PheraStar FSX (fitted with 384-well aperture spoon and 590 675 675 FP optic module). The gain and focus were adjusted before each plate was read so that the polarisation of a no enzyme control (column 24) was equal to 35 mP. Data were normalised against the no inhibitor controls (column 23) and no enzyme controls (column 24).
Background: Fluorescence polarisation rises when a labelled molecule tumbles more slowly, as on binding a larger partner.

Assay [2] deals with T2, recombinant N-terminal PMS2 (residues 1-365) (Homo sapiens, UniProt P54278).
T2 construct: recombinant N-terminal PMS2 (residues 1-365)
T2 sequence (P54278 1-365): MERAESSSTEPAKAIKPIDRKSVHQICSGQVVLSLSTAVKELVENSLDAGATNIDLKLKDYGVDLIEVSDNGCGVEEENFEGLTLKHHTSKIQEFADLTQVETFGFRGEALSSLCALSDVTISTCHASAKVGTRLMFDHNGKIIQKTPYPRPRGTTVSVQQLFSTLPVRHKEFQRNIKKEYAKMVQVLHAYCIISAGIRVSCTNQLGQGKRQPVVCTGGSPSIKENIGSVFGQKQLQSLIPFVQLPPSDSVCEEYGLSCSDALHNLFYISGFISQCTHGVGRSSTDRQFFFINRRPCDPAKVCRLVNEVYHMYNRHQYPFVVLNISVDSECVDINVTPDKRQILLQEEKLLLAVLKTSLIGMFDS
The assay can be described thus: Fluorescence Polarisation Assay for PMS2. Type of assay: binding. Conditions: 10 nM N-terminal PMS2, 5 nM probe compound. As for the experimental part:
Fluorescence Polarisation Assay for PMS2
For single point screening, test compounds were added to wells in columns 1-22 whilst DMSO was added to wells in columns 23 and 24 in order to normalise the plate. For potency determination, serial dilutions of test compounds were added to wells in columns 3-22 and DMSO volume was normalised across the plate.
20 μL assay buffer was added to all wells in columns 1 and 24 (column 24 only for single point screening) using a MultiDrop Combi (ThermoFisher). Plates were centrifuged for 1 minute at 250×g and were incubated at room temperature for 30 minutes prior to the addition of 20 μL of 2× (20 nM) of 5-((5-(4-((2-(2,4-dihydroxy-5-isopropylbenzoyl)isoindolin-5-yl)methyl)piperazin-1-yl)pentyl)carbamoyl)-2-(6-(dimethylamino)-3-(dimethyliminio)-3H-xanthen-9-yl)benzoate (referred to hereinafter as “probe compound”) in assay buffer (prepared from a 100 μM DMSO stock) with a MultiDrop Combi (ThermoFisher). The final concentration of N-terminal PMS2 was 10 nM and the final concentration of probe compound was 5 nM.
Compound plates were centrifuged for 1 minute at 250×g for 1 minute and were incubated at room temperature for 1 hour before being read on a PheraStar FSX (fitted with 384-well aperture spoon and 540 590 590 FP optic module). The gain and focus were adjusted before each plate was read so that the polarisation of a no enzyme control (column 24) was equal to 35 mP. Data were normalised against the no inhibitor controls (column 23) and no enzyme controls (column 24).

[3] abbreviates: fluorescence polarisation probe displacement, read-out: PMS2 IC50.

Take `Cn1cc(Nc2cccc3c2CN(C(=O)c2c(O)cc(O)cc2OCc2ccccc2)CC3)cn1` [Example 117, (2-(Benzyloxy)-4,6-dihydroxyphenyl)(8-((1-methyl-1H-pyrazol-4-yl)amino)-3,4-dihydroisoquinolin-2(1H)-yl)methanone]: the values for the IC50 in assay [1] and in assay [2] (setting [3]) were below 1000 nM and 1000 to 10000 nM, respectively.

Consider `O=C(c1c(O)cc(O)cc1OCc1ccccc1)N1CCc2cccc(N[C@@H]3CCOC3)c2C1` [Example 1, (R)-(2-(Benzyloxy)-4,6-dihydroxyphenyl)(8-((tetrahydrofuran-3-yl)amino)-3,4-dihydro-isoquinolin-2(1H)-yl)methanone], for which the IC50 in assay [1] is below 1000 nM; in assay [2] (setting [3]) it was above 10000 nM.

For `O=C(c1c(O)cc(O)cc1OCc1ccccc1)N1Cc2ccc(CNC3CCOC3)cc2C1` (centres unmarked) [Example 145, (2-(Benzyloxy)-4,6-dihydroxyphenyl)(5-(((tetrahydrofuran-3-yl)amino)methyl)isoindolin-2-yl)methanone], the IC50 in assay [1] and in assay [2] (setting [3]) was below 1000 nM throughout.

In the case of `O=C(Nc1cccc2c1CN(C(=O)c1c(O)cc(O)cc1OCc1ccccc1)CC2)C1CCOC1` (centres unmarked) [Example 102, N-(2-(2-(Benzyloxy)-4,6-dihydroxybenzoyl)-1,2,3,4-tetrahydroisoquinolin-8-yl) tetrahydrofuran-3-carboxamide], the IC50 in assay [1] and in assay [2] (setting [3]) was above 10000 nM each time.

In the case of `Cc1c[nH]c(=O)cc1Nc1cccc2c1CN(C(=O)c1c(O)cc(O)cc1OCc1ccccc1)C2` [Example 24, 4-((2-(2-(benzyloxy)-4,6-dihydroxybenzoyl)isoindolin-4-yl)amino)-5-methylpyridin-2(1H)-one], the IC50 in assay [1] and in assay [2] (setting [3]) was 1000 to 10000 nM each time.

On to `COc1cc2c(c(NC3CCOC3)c1)CN(C(=O)c1c(O)cc(O)cc1OCc1ccccc1)CC2` (single isomer, unassigned) [Example 72, (2-(Benzyloxy)-4,6-dihydroxyphenyl)(6-methoxy-8-((tetrahydrofuran-3-yl)amino)-3,4-dihydroisoquinolin-2(1H)-yl)methanone], for which the values for the IC50 in assay [1] and in assay [2] (setting [3]) were below 1000 nM and 1000 to 10000 nM, respectively.

Turning to `CCOc1cc(O)cc(O)c1C(=O)N1Cc2cccc(NC3CCOC3)c2C1` (centres unmarked) [Example 17, (2-Ethoxy-4,6-dihydroxyphenyl)(4-((tetrahydrofuran-3-yl)amino)isoindolin-2-yl)methanone], the half-inhibitory concentration (IC50) in assay [1] is below 1000 nM; in assay [2] (PMS2 IC50, fluorescence polarisation probe displacement), above 10000 nM.

For the compound `Cc1ncncc1Nc1cccc2c1CN(C(=O)c1c(O)cc(O)cc1OCc1ccccc1)CC2` [Example 123, (2-(Benzyloxy)-4,6-dihydroxyphenyl)(8-((4-methylpyrimidin-5-yl)amino)-3,4-dihydroisoquinolin-2(1H)-yl)methanone], the results for the IC50 in assay [1] and in assay [2] (setting [3]) were 1000 to 10000 nM and above 10000 nM, respectively.

As to `CN1C[C@@H](Nc2cccc3c2CN(C(=O)c2c(O)cc(O)cc2OCc2ccccn2)CC3)CC1=O` [Example 58, (S)-4-((2-(2,4-Dihydroxy-6-(pyridin-2-ylmethoxy)benzoyl)-1,2,3,4-tetrahydroisoquinolin-8-yl)amino)-1-methylpyrrolidin-2-one], the results for the IC50 in assay [1] and in assay [2] (setting [3]) were below 1000 nM and above 10000 nM, respectively.

As for `O=C(c1c(O)cc(O)cc1OCc1ccccn1)N1CCc2cccc(NC3COC3)c2C1` [Example 57, (2,4-Dihydroxy-6-(pyridin-2-ylmethoxy)phenyl)(8-(oxetan-3-ylamino)-3,4-dihydroisoquinolin-2(1H)-yl)methanone], the half-inhibitory concentration (IC50) in assay [1] is below 1000 nM; in assay [2] (setting [3]), above 10000 nM.

For `CC(=O)N1CCC[C@H](Nc2cccc3c2CN(C(=O)c2c(O)cc(O)cc2OCc2ccccc2)CC3)C1` [Example 67, (S)-1-(3-((2-(2-(Benzyloxy)-4,6-dihydroxybenzoyl)-1,2,3,4-tetrahydroisoquinolin-8-yl)amino)piperidin-1-yl)ethan-1-one], the results for the IC50 in assay [1] and in assay [2] (setting [3]) were 1000 to 10000 nM and above 10000 nM, respectively.

For `Nc1cccc2c1CN(C(=O)c1c(O)cc(O)cc1OCc1ccccc1)C2` [Example 93, (4-Aminoisoindolin-2-yl)(2-(benzyloxy)-4,6-dihydroxyphenyl)methanone], the IC50 in assay [1] is below 1000 nM; in assay [2] (setting [3]), 1000 to 10000 nM.

In the case of `O=C(c1c(O)cc(O)cc1OCc1ccc(F)cc1)N1Cc2cccc(NC3CCOC3)c2C1` (centres unmarked) [Example 37, (2-((4-Fluorobenzyl)oxy)-4,6-dihydroxyphenyl)(4-((tetrahydrofuran-3-yl)amino)isoindolin-2-yl)methanone], the IC50 was below 1000 nM in assay [1] and 1000 to 10000 nM in assay [2] (setting [3]).

Turning to `O=C(c1c(O)cc(O)cc1OCc1ccccc1)N1Cc2cccc(CN3CCOCC3)c2C1` [Example 10, (2-(Benzyloxy)-4,6-dihydroxyphenyl)(4-(morpholinomethyl)isoindolin-2-yl)methanone], the IC50 in assay [1] and in assay [2] (setting [3]) was 1000 to 10000 nM each time.

Turning to `NC(=O)c1ccc(Nc2cccc3c2CN(C(=O)c2c(O)cc(O)cc2OCc2ccccc2)CC3)cc1` [Example 75, 4-((2-(2-(Benzyloxy)-4,6-dihydroxybenzoyl)-1,2,3,4-tetrahydroisoquinolin-8-yl)amino)benzamide], the IC50 in assay [1] and in assay [2] (setting [3]) was above 10000 nM throughout.

Consider `O=C(c1c(O)cc(O)cc1OCc1ccccn1)N1CCc2cccc(N[C@@H]3CCOC3)c2C1` [Example 56, (R)-(2,4-dihydroxy-6-(pyridin-2-ylmethoxy)phenyl)(8-((tetrahydrofuran-3-yl)amino)-3,4-dihydroisoquinolin-2(1H)-yl)methanone], for which the IC50 in assay [1] is below 1000 nM; in assay [2] (setting [3]), above 10000 nM.

With `CN1CCN(C(=O)c2cc3c(c(N[C@H]4CCOC4)c2)CN(C(=O)c2c(O)cc(O)cc2OCc2ccccc2)CC3)CC1` [Example 127, (S)-(2-(2-(Benzyloxy)-4,6-dihydroxybenzoyl)-8-((tetrahydrofuran-3-yl)amino)-1,2,3,4-tetrahydroisoquinolin-6-yl)(4-methylpiperazin-1-yl)methanone], the half-inhibitory concentration (IC50) in assay [1] and in assay [2] (setting [3]) was below 1000 nM each time.

`O=C(c1c(O)cc(O)cc1OCc1ccccc1)N1CCc2cccc(NC3CCS(=O)(=O)C3)c2C1` (single isomer, unassigned) [Example 147b, (2-(Benzyloxy)-4,6-dihydroxyphenyl)(8-((1,1-dioxidotetrahydrothiophen-3-yl)amino)-3,4-dihydroisoquinolin-2(1H)-yl)methanone]: the IC50 was below 1000 nM in assay [1] and 1000 to 10000 nM in assay [2] (setting [3]).

As for `O=C(c1c(O)cc(O)cc1OCc1ccccc1)N1Cc2ccc(CNC3COC3)cc2C1` [Example 144, 2-(Benzyloxy)-4,6-dihydroxyphenyl-(5-((oxetan-3-ylamino)methyl)isoindolin-2-yl)methanone], the IC50 in assay [1] and in assay [2] (setting [3]) was below 1000 nM throughout.

In general, IC50 refers to the concentration at which inhibition is half-maximal.
